The results in this text go back to patent US20220323455A1, “FUSED HETEROCYCLIC DERIVATIVES AS ANTIVIRAL AGENTS” (priority 2019, published 2022).

The assay has as its system HBV. Briefly: HBV replication inhibition assay (BDNA assay) in HepG2.2.15 cells. In kind it is cell-based, Hepatitis B virus. To be noted: 6 days, encapsidated HBV DNA in supernatant. How it is done: HBV replication inhibition by the disclosed compounds were determined in cells infected or transfected with HBV or cells with stably integrated HBV, such as HepG2.2.15 cells (Sells et al. 1987). In this example, HepG2.2.15 cells were maintained in cell culture medium containing 10% fetal bovine serum (FBS), Geneticin, L-glutamine, penicillin and streptomycin. HepG2.2.15 cells were seeded in 96-well plates at a density of 40,000 cells/well and were treated with serially diluted compounds at a final DMSO concentration of 0.5% either alone or in combination by adding drugs in a checker box format. Cells were incubated with compounds for three days, after which medium was removed and fresh medium containing compounds was added to cells and incubated for another three days. At day 6, supernatant was removed and treated with DNase at 37° C. for 60 minutes, followed by enzyme inactivation at 75° C. for 15 minutes. Encapsidated HBV DNA was released from the virions and covalently linked HBV polymerase by incubating in lysis buffer (Affymetrix QS0010) containing 2.5 μg proteinase K at 50° C. for 40 minutes. HBV DNA was denatured by addition of 0.2 M NaOH and detected using a branched DNA (BDNA) QuantiGene assay kit according to manufacturer recommendation (Affymetrix). HBV DNA levels were also quantified using qPCR, based on amplification of encapsidated HBV DNA extraction with QuickExtraction Solution (Epicentre Biotechnologies) and amplification of HBV DNA using HBV specific PCR probes that can hybridize to HBV DNA and a fluorescently labeled probe for quantitation. In addition, cell viability of HepG2.2.15 cells incubated with test compounds alone or in combination was determined by using CellTitre-Glo reagent according to the manufacturer protocol (Promega). The mean background signal from wells containing only culture medium was subtracted from all other samples, and percent inhibition at each compound concentration was calculated by normalizing to signals from HepG2.2.15 cells treated with 0.5% DMSO using equation E1.
% inhibition(DMSOave−Xi)DMSOave×100% E1:
where DMSOave is the mean signal calculated from the wells that were treated with DMSO control (0% inhibition control) and Xi is the signal measured from the individual wells. EC50 values, effective concentrations that achieved 50% inhibitory effect, were determined by non-linear fitting using Graphpad Prism software (San Diego, Calif.) and equation E2.
Y=Ymin+(Ymax−Ymin)/(1+10(Log EC50−X)×HillSlope) E2:
where Y represents percent inhibition values and X represents the logarithm of compound concentrations.
Selected disclosed compounds were assayed in the HBV replication assay (BDNA assay), as described above, and a representative group of these active compounds is shown in Table 5.

In general, EC50 refers to the concentration needed to bring the measured effect to its halfway point. Take `C[C@@H]1Cc2nn3c(c2CN1C(=O)Nc1ccc(F)c(C(F)(F)F)c1)C(F)(F)CCC(CO)C3` (single isomer, unassigned) [Example 80, (3R,8R*)-11,11-Difluoro-N-(4-fluoro-3-(trifluoromethyl)phenyl)-8-(hydroxymethyl)-3-methyl-3,4,8,9,10,11-hexahydro-1H-pyrido[4′,3′:3,4]pyrazolo[1,5-a]azepine-2(7H)-carboxamide]: the EC50 was 1 nM.
For `C[C@@H]1Cc2nn3c(c2CN1C(=O)Nc1ccnc(Br)c1F)C(F)(F)CCC(CO)C3` (single isomer, unassigned) [Example 81, (3R,8R*)—N-(2-Bromo-3-fluoropyridin-4-yl)-11,11-difluoro-8-(hydroxymethyl)-3-methyl-3,4,8,9,10,11-hexahydro-1H-pyrido[4′,3′:3,4]pyrazolo[1,5-a]azepine-2(7H)-carboxamide], the EC50 came to 2 nM.
Turning to `C[C@@H]1Cc2nn3c(c2CN1C(=O)Nc1ccnc(C(F)F)c1F)C(F)(F)CCC(CO)C3` (single isomer, unassigned) [Example 82, (3R,8R*)—N-(2-(Difluoromethyl)-3-fluoropyridin-4-yl)-11,11-difluoro-8-(hydroxymethyl)-3-methyl-3,4,8,9,10,11-hexahydro-1H-pyrido[4′,3′:3,4]pyrazolo[1,5-a]azepine-2(7H)-carboxamide], the EC50 worked out at 1 nM.
Regarding `C[C@@H]1Cc2nn3c(c2CN1C(=O)Nc1ccnc(C(F)F)c1F)C(F)(F)CCC(O)(CF)C3` (single isomer, unassigned) [Example 85, (3R,8R*)—N-(2-(Difluoromethyl)-3-fluoropyridin-4-yl)-11,11-difluoro-8-(fluoromethyl)-8-hydroxy-3-methyl-3,4,8,9,10,11-hexahydro-1H-pyrido[4′,3′:3,4]pyrazolo[1,5-a]azepine-2(7H)-carboxamide], the concentration for a half-maximal effect (EC50) amounted to 45 nM.
As to `C[C@@H]1Cc2nn3c(c2CN1C(=O)Nc1ccc(F)c(C#N)c1)C(F)(F)CCC(O)(CF)C3` (single isomer, unassigned) [Example 86, (3R,8S*)—N-(3-Cyano-4-fluorophenyl)-11,11-difluoro-8-(fluoromethyl)-8-hydroxy-3-methyl-3,4,8,9,10,11-hexahydro-1H-pyrido[4′,3′:3,4]pyrazolo[1,5-a]azepine-2(7H)-carboxamide], the EC50 came to 20 nM.
Consider `C[C@@H]1Cc2nn3c(c2CN1C(=O)Nc1ccnc(Br)c1F)C(F)(F)CCC(O)(CF)C3` (single isomer, unassigned) [Example 87, (3R,8S*)—N-(2-Bromo-3-fluoropyridin-4-yl)-11,11-difluoro-8-(fluoromethyl)-8-hydroxy-3-methyl-3,4,8,9,10,11-hexahydro-1H-pyrido[4′,3′:3,4]pyrazolo[1,5-a]azepine-2(7H)-carboxamide], for which the concentration giving a half-maximal response (EC50) stood at 39 nM.
Consider `C[C@@H]1Cc2nn3c(c2CN1C(=O)Nc1ccnc(C(F)F)c1F)C(F)(F)CCC(O)(CF)C3` (single isomer, unassigned) [Example 88, (3R,8S*)—N-(2-(Difluoromethyl)-3-fluoropyridin-4-yl)-11,11-difluoro-8-(fluoromethyl)-8-hydroxy-3-methyl-3,4,8,9,10,11-hexahydro-1H-pyrido[4′,3′:3,4]pyrazolo[1,5-a]azepine-2(7H)-carboxamide], for which the half-maximal effective concentration (EC50) is 118 nM.
With `C[C@@H]1Cc2nn3c(c2CN1C(=O)Nc1ccnc(C(F)F)c1F)C(F)(F)CCC(O)(CC#N)C3` (single isomer, unassigned) [Example 90, (3R,8S*)-8-(Cyanomethyl)-N-(2-(difluoromethyl)-3-fluoropyridin-4-yl)-11,11-difluoro-8-hydroxy-3-methyl-3,4,8,9,10,11-hexahydro-1H-pyrido[4′,3′:3,4]pyrazolo[1,5-a]azepine-2(7H)-carboxamide], the half-maximal effective concentration (EC50) stood at 54 nM.
For `C[C@@H]1Cc2nn3c(c2CN1C(=O)Nc1ccnc(Br)c1F)C(F)(F)CCC(O)(CC#N)C3` (single isomer, unassigned) [Example 91, (3R,8R*)—N-(2-Bromo-3-fluoropyridin-4-yl)-8-(cyanomethyl)-11,11-difluoro-8-hydroxy-3-methyl-3,4,8,9,10,11-hexahydro-1H-pyrido[4′,3′:3,4]pyrazolo[1,5-a]azepine-2(7H)-carboxamide] the value was 30 nM.
Consider `C[C@@H]1Cc2nn3c(c2CN1C(=O)Nc1ccnc(C(F)F)c1F)C(F)(F)CCC(O)(CC#N)C3` (single isomer, unassigned) [Example 92, (3R,8R*)-8-(Cyanomethyl)-N-(2-(difluoromethyl)-3-fluoropyridin-4-yl)-11,11-difluoro-8-hydroxy-3-methyl-3,4,8,9,10,11-hexahydro-1H-pyrido[4′,3′:3,4]pyrazolo[1,5-a]azepine-2(7H)-carboxamide], for which the EC50 came to 191 nM.
Take `C[C@@H]1Cc2nn3c(c2CN1C(=O)Nc1ccc(F)c(C#N)c1)C(F)(F)CCC(O)(COCC(F)F)C3` (single isomer, unassigned) [Example 93, (3R,8R*)—N-(3-Cyano-4-fluorophenyl)-8-((2,2-difluoroethoxy)methyl)-11,11-difluoro-8-hydroxy-3-methyl-3,4,89,10,11-hexahydro-1H-pyrido[4′,3′:3,4]pyrazolo[1,5-a]azepine-2(7H)-carboxamide]: the concentration giving a half-maximal response (EC50) is 45 nM.
`C[C@@H]1Cc2nn3c(c2CN1C(=O)Nc1ccc(F)c(C#N)c1)C(F)(F)CCC(O)(COCC(F)F)C3` (single isomer, unassigned) [Example 94, (3R,8S*)—N-(3-Cyano-4-fluorophenyl)-8-((2,2-difluoroethoxy)methyl)-11,11-difluoro-8-hydroxy-3-methyl-3,4,8,9,10,11-hexahydro-1H-pyrido[4′,3′:3,4]pyrazolo[1,5-a]azepine-2(7H)-carboxamide]: the 50% effective concentration (EC50) came to 15 nM.
For `C#CC1(O)CCC(F)(F)c2c3c(nn2C1)C[C@@H](C)N(C(=O)Nc1ccc(F)c(C#N)c1)C3` (single isomer, unassigned) [Example 95, (3R,8R*)—N-(3-Cyano-4-fluorophenyl)-8-ethynyl-11,11-difluoro-8-hydroxy-3-methyl-3,4,8,9,10,11-hexahydro-1H-pyrido[4′,3′:3,4]pyrazolo[1,5-a]azepine-2(7H)-carboxamide], the concentration giving a half-maximal response (EC50) was determined as 13 nM.
Take `C#CC1(O)CCC(F)(F)c2c3c(nn2C1)C[C@@H](C)N(C(=O)Nc1ccnc(Br)c1F)C3` (single isomer, unassigned) [Example 96, (3R,8R*)—N-(2-Bromo-3-fluoropyridin-4-yl)-8-ethynyl-11,11-difluoro-8-hydroxy-3-methyl-3,4,8,9,10,11-hexahydro-1H-pyrido[4′,3′:3,4]pyrazolo[1,5-a]azepine-2(7H)-carboxamide]: the concentration giving a half-maximal response (EC50) stood at 35 nM.
For the molecule `C#CC1(O)CCC(F)(F)c2c3c(nn2C1)C[C@@H](C)N(C(=O)Nc1ccc(F)c(C#N)c1)C3` (single isomer, unassigned) [Example 98, (3R,8S*)—N-(3-Cyano-4-fluorophenyl)-8-ethynyl-11,11-difluoro-8-hydroxy-3-methyl-3,4,8,9,10,11-hexahydro-1H-pyrido[4′,3′:3,4]pyrazolo[1,5-a]azepine-2(7H)-carboxamide], the EC50 stood at 51 nM.
For the molecule `C#CC1(O)CCC(F)(F)c2c3c(nn2C1)C[C@@H](C)N(C(=O)Nc1ccnc(Br)c1F)C3` (single isomer, unassigned) [Example 99, (3R,8S*)—N-(2-Bromo-3-fluoropyridin-4-yl)-8-ethynyl-11,11-difluoro-8-hydroxy-3-methyl-3,4,8,9,10,11-hexahydro-1H-pyrido[4′,3′:3,4]pyrazolo[1,5-a]azepine-2(7H)-carboxamide], the EC50 was found to be 275 nM.
The same measure for `C[C@@H]1Cc2nn3c(c2CN1C(=O)Nc1ccc(F)c(C#N)c1)C(F)(F)CCC(C(C)(C)O)C3` (single isomer, unassigned) [Example 101, (3R,8S*)—N-(3-Cyano-4-fluorophenyl)-11,11-difluoro-8-(2-hydroxypropan-2-yl)-3-methyl-3,4,8,9,10,11-hexahydro-1H-pyrido[4′,3′:3,4]pyrazolo[1,5-a]azepine-2(7H)-carboxamide]: 44 nM; for `C[C@@H]1Cc2nn3c(c2CN1C(=O)Nc1ccnc(Br)c1F)C(F)(F)CCC(C(C)(C)O)C3` (single isomer, unassigned) [Example 102, (3R,8S*)—N-(2-Bromo-3-fluoropyridin-4-yl)-1111-difluoro-8-(2-hydroxypropan-2-yl)-3-methyl-3,4,8,9,10,11-hexahydro-1H-pyrido[4′,3′:3,4]pyrazolo[1,5-a]azepine-2(7H)-carboxamide]: 88 nM.
